Experiments:
[1] = molecular target: T1, HiBit-BRM fusion protein (Homo sapiens, UniProt P51531); experiment: HiBiT-BRM cell-based degradation assay (Nano-Glo HiBiT Lytic Detection, 24 h); conditions: HeLa cell line expressing HiBiT-BRM; for DC50: read-out: BRM HiBit Degradation IC50
T1 construct: expressed in transfected cells
Experimental: (§1) Procedure: A stable HeLa cell line expressing HiBiT-BRM was generated. On day 0, 5000 cells were seeded in 40 μL of media into each well of 384-well cell culture plates. On day 1, cells were treated with 120 nL DMSO or 120 nL of 3-fold serially DMSO-diluted compounds (10 points in duplicate with 30 μM as final top dose). Subsequently plates were incubated for 24 h in a standard tissue culture incubator and equilibrated at room temperature for 15 minutes. Nano-Glo HiBiT Lytic Detection System (Promega N3050) reagent was freshly prepared and 20 ul was added to each well. Upon addition of this LgBit-containing reagent, the HiBiT and LgBiT proteins associate to form the luminescent NanoBiT luciferase. The plates were shaken for 10 minutes at room temperature and the bioluminescence read using an EnVision plate reader (PerkinElmer).
(§2) The degradation % was calculated using the following formula: % degradation=100%−100%×(LumSample−LumLC)/(LumHC−LumLC). DMSO treated cells are employed as High Control (HC) and 2 μM of a known BRM/BRG1 degrader standard treated cells are employed as Low Control (LC).

[2] = molecular target: T2, HiBit-BRG1 fusion protein (Homo sapiens, UniProt P51532); experiment: HiBiT-BRG1 cell-based degradation assay (Nano-Glo HiBiT Lytic Detection, 24 h); conditions: HeLa cell line expressing HiBit-BRG1 and LgBit; for Dmax: read-out: BRG1 HiBit Degradation Maximum (%)
T2 construct: expressed in transfected cells
T2 sequence (P51532 whole entry, the tested form may be a part): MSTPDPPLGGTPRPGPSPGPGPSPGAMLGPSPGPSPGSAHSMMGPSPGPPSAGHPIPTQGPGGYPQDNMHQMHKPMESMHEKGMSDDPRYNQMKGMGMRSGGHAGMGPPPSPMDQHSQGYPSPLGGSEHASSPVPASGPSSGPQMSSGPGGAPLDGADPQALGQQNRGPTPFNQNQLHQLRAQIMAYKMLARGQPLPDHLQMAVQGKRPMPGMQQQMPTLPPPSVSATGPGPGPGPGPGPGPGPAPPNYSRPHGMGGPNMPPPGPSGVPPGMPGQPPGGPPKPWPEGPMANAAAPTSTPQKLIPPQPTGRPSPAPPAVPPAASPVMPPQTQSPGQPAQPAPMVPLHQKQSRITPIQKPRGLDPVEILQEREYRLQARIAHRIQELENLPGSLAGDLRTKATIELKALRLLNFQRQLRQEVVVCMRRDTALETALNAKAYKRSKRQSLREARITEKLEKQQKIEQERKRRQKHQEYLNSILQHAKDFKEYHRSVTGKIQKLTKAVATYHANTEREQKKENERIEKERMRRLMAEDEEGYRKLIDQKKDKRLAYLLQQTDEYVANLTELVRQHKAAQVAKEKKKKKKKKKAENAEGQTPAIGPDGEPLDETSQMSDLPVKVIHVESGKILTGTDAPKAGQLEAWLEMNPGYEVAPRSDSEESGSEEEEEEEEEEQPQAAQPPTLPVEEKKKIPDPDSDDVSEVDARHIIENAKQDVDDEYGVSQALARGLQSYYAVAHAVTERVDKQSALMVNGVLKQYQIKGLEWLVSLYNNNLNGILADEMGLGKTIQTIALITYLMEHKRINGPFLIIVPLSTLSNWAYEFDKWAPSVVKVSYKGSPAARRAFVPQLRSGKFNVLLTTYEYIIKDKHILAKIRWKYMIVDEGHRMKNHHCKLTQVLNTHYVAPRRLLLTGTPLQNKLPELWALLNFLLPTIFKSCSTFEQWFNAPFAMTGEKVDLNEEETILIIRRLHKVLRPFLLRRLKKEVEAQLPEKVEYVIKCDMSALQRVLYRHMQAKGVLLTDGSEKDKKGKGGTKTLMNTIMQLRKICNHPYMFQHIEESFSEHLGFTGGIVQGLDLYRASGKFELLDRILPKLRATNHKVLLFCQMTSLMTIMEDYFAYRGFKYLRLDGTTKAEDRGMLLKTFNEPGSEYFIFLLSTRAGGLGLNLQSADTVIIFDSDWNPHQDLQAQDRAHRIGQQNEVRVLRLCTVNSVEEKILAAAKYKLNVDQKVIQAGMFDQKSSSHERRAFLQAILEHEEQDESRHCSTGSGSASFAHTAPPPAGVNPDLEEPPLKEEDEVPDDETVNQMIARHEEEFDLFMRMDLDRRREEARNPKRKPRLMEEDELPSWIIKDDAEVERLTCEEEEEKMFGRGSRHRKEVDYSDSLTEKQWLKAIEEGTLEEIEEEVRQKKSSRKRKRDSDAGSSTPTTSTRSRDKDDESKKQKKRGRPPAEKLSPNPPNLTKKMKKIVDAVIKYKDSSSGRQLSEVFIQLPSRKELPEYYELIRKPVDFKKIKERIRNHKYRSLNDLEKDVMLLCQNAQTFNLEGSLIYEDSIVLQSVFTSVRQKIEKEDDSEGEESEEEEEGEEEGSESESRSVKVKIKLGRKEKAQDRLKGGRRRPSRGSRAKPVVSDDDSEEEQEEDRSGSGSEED
Experimental: as §1, with “On day 1, cells were treated with 120 nL DMSO or 120 nL of 3-fold serially DMSO-diluted compounds (10 points in duplicate with 30 μM as final top dose).” left out
For measurement of BRG1 degradation, a stable HeLa cell line expressing HiBit-BRG1 and LgBit was generated. The same protocol as above was then followed.
as §2

T1 sequence (P51531 whole entry, the tested form may be a part): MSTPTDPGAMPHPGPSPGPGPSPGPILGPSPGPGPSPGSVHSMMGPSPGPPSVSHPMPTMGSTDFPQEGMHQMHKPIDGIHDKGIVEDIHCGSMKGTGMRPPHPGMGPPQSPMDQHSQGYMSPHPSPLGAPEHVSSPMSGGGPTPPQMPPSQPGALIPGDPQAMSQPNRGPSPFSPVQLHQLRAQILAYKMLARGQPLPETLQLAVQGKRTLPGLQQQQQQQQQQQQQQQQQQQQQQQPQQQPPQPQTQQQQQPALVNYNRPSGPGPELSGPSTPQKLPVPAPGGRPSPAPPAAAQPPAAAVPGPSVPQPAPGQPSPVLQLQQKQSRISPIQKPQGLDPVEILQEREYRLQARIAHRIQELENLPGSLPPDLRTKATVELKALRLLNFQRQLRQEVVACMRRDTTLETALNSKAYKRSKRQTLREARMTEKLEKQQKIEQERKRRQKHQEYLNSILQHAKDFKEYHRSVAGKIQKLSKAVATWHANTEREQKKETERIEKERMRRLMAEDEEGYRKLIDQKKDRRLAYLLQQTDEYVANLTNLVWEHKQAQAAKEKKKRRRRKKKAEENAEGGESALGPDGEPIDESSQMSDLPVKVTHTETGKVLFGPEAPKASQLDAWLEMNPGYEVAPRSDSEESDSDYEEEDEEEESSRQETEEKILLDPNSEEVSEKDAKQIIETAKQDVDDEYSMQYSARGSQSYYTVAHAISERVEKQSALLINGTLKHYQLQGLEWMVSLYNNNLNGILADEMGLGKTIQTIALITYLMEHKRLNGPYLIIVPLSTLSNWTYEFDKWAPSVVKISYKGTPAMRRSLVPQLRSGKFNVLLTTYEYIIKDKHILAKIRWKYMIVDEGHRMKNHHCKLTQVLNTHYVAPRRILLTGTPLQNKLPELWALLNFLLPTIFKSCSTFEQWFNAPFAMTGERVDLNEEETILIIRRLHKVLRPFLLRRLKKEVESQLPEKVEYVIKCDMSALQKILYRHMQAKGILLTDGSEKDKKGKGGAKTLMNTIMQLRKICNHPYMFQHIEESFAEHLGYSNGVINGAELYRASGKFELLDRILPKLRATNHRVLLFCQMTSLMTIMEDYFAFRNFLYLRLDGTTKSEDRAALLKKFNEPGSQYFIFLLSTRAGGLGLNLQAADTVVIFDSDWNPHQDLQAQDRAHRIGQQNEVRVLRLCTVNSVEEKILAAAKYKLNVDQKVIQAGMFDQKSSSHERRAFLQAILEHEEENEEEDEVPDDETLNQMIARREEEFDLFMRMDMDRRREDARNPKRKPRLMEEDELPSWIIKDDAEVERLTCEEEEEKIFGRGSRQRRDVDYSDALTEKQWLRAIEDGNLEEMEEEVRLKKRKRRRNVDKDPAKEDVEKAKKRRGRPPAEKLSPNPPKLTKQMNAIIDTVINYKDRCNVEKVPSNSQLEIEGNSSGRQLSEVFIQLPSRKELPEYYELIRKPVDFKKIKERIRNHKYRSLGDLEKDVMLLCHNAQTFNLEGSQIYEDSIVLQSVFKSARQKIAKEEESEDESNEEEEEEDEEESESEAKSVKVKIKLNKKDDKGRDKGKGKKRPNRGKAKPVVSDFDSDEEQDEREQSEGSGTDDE

Row | SMILES | BRM HiBit Degradation Maximum (%) [1] | DC50 [1] [µM] | Dmax [2] [%] | DC50 ([2]; read-out: BRMG1 HiBit Degradation IC50) [µM]
1 | Cc1ncsc1-c1ccc([C@H](C)NC(=O)[C@@H]2C[C@@H](O)CN2C(=O)[C@@H](c2cc([C@H]3CC[C@@H](c4cnc(N5CCC(c6c[nH]c7nnc(-c8ccccc8O)cc67)CC5)nc4)CC3)no2)C(C)C)cc1 (racemic) [Compound 68, (2S,4R)-4-hydroxy-N-[(1S)-1-[4-(4-methyl-1,3-thiazol-5-yl)phenyl]ethyl]-1-[(2R)-3-methyl-2-{3-[(1s,4s)-4-(2-{4-[3-(2-hydroxyphenyl)-7H-pyrrolo[2,3-c]pyridazin-5-yl]piperidin-1-yl}pyrimidin-5-yl)cyclohexyl]-1,2-oxazol-5-yl}butanoyl]pyrrolidine-2-carboxamide] | A (“A” indicates maximum degradation ≥ 75%) | > 0.01 | < 50 | 
2 | Cc1ncsc1-c1ccc([C@H](C)NC(=O)[C@@H]2C[C@@H](O)CN2C(=O)[C@@H](c2cc(C3CCN(C(=O)[C@H]4C[C@@]5(Cc6cc(-c7ccccc7O)nnc6N5)C4)CC3)no2)C(C)C)cc1 (racemic) [Compound 69, (2S,4R)-4-hydroxy-1-((R)-2-(3-(1-((1R,3s)-3′-(2-hydroxyphenyl)-5′,7′-dihydrospiro[cyclobutane-1,6′-pyrrolo[2,3-c]pyridazine]-3-carbonyl)piperidin-4-yl)isoxazol-5-yl)-3-methylbutanoyl)-N-((S)-1-(4-(4-methylthiazol-5-yl)phenyl)ethyl)pyrrolidine-2-carboxamide] | A (“A” indicates maximum degradation ≥ 75%) | > 0.01 | < 50 | 
3 | Cc1ncsc1-c1ccc([C@H](C)NC(=O)[C@@H]2C[C@@H](O)CN2C(=O)[C@@H](c2cc(OCCNC(=O)[C@H]3C[C@@]4(Cc5cc(-c6ccccc6O)nnc5N4)C3)no2)C(C)C)cc1 (racemic) [Compound 70, (1R,3s)-N-(2-((5-((R)-1-((2S,4R)-4-hydroxy-2-(((S)-1-(4-(4-methylthiazol-5-yl)phenyl)ethyl)carbamoyl)pyrrolidin-1-yl)-3-methyl-1-oxobutan-2-yl)isoxazol-3-yl)oxy)ethyl)-3′-(2-hydroxyphenyl)-5′,7′-dihydrospiro[cyclobutane-1,6′-pyrrolo[2,3-c]pyridazine]-3-carboxamide] | B (“B” indicates maximum degradation ≥ 50%) | > 0.1 | < 50 | 
4 | Cc1ncsc1-c1ccc([C@H](C)NC(=O)[C@@H]2C[C@@H](O)CN2C(=O)[C@@H](c2cc(OCCNC(=O)[C@H]3C[C@]4(Cc5cc(-c6ccccc6O)nnc5N4)C3)no2)C(C)C)cc1 (racemic) [Compound 71, (1S,3r)-N-(2-((5-((R)-1-((2S,4R)-4-hydroxy-2-(((S)-1-(4-(4-methylthiazol-5-yl)phenyl)ethyl)carbamoyl)pyrrolidin-1-yl)-3-methyl-1-oxobutan-2-yl)isoxazol-3-yl)oxy)ethyl)-3′-(2-hydroxyphenyl)-5′,7′-dihydrospiro[cyclobutane-1,6′-pyrrolo[2,3-c]pyridazine]-3-carboxamide] | A (“A” indicates maximum degradation ≥ 75%) | > 0.1 | < 50 | 
5 | Cc1ncsc1-c1ccc([C@H](C)NC(=O)[C@@H]2C[C@@H](O)CN2C(=O)[C@@H](c2cc(N3C[C@@H]4C[C@H]3CN4C(=O)[C@H]3C[C@@]4(Cc5cc(-c6ccccc6O)nnc5N4)C3)no2)C(C)C)cc1 (racemic) [Compound 72, (2S,4R)-4-hydroxy-1-((R)-2-(3-((1S,4S)-5-((1S,3s)-3′-(2-hydroxyphenyl)-5′,7′-dihydrospiro[cyclobutane-1,6′-pyrrolo[2,3-c]pyridazine]-3-carbonyl)-2,5-diazabicyclo[2.2.1]heptan-2-yl)isoxazol-5-yl)-3-methylbutanoyl)-N-((S)-1-(4-(4-methylthiazol-5-yl)phenyl)ethyl)pyrrolidine-2-carboxamide] | B (“B” indicates maximum degradation ≥ 50%) | > 1 | < 50 | 
6 | Cc1ncsc1-c1ccc([C@H](C)NC(=O)[C@@H]2C[C@@H](O)CN2C(=O)[C@@H](c2cc(N3CCC(C(=O)NC(=N)N4CCc5[nH]c6nnc(-c7ccccc7O)cc6c5C4)CC3)no2)C(C)C)cc1 (racemic) [Compound 74, 1-{5-[(2R)-1-[(2S,4R)-4-hydroxy-2-{[(1S)-1-[4-(4-methyl-1,3-thiazol-5-yl)phenyl]ethyl]carbamoyl}pyrrolidin-1-yl]-3-methyl-1-oxobutan-2-yl]-1,2-oxazol-3-yl}-N-[12-(2-hydroxyphenyl)-4,8,10,11-tetraazatricyclo[7.4.0.0^{2,7}]trideca-1(13),2(7),9,11-tetraene-4-carboximidoyl]piperidine-4-carboxamide] | A (“A” indicates maximum degradation ≥ 75%) | > 0.01 | < 50 | 
7 | Cc1ncsc1-c1ccc([C@H](C)NC(=O)[C@@H]2C[C@@H](O)CN2C(=O)[C@@H](c2cc(C3CCN(C(=O)[C@H]4C[C@]5(Cc6cc(-c7ccccc7O)nnc6N5)C4)CC3)no2)C(C)C)cc1 (racemic) [Compound 75, (2S,4R)-4-hydroxy-1-((R)-2-(3-(1-((1S,3r)-3′-(2-hydroxyphenyl)-5′,7′-dihydrospiro[cyclobutane-1,6′-pyrrolo[2,3-c]pyridazine]-3-carbonyl)piperidin-4-yl)isoxazol-5-yl)-3-methylbutanoyl)-N-((S)-1-(4-(4-methylthiazol-5-yl)phenyl)ethyl)pyrrolidine-2-carboxamide] | A (“A” indicates maximum degradation ≥ 75%) | > 0.01 | > 50 | > 0.1
8 | Cc1ncsc1-c1ccc([C@H](C)NC(=O)[C@@H]2C[C@@H](O)CN2C(=O)[C@@H](c2cc(N3C[C@H]4C[C@@H]3CN4C(=O)[C@H]3C[C@]4(Cc5cc(-c6ccccc6O)nnc5N4)C3)no2)C(C)C)cc1 (racemic) [Compound 76, (2S,4R)-4-hydroxy-1-((R)-2-(3-((1R,4R)-5-((1S,3r)-3′-(2-hydroxyphenyl)-5′,7′-dihydrospiro[cyclobutane-1,6′-pyrrolo[2,3-c]pyridazine]-3-carbonyl)-2,5-diazabicyclo[2.2.1]heptan-2-yl)isoxazol-5-yl)-3-methylbutanoyl)-N-((S)-1-(4-(4-methylthiazol-5-yl)phenyl)ethyl)pyrrolidine-2-carboxamide] | A (“A” indicates maximum degradation ≥ 75%) | > 0.1 | < 50 | 
9 | Cc1ncsc1-c1ccc([C@H](C)NC(=O)[C@@H]2C[C@@H](O)CN2C(=O)[C@@H](c2cc(N3C[C@@H]4C[C@H]3CN4C(=O)[C@H]3C[C@]4(Cc5cc(-c6ccccc6O)nnc5N4)C3)no2)C(C)C)cc1 (racemic) [Compound 78, (2S,4R)-4-hydroxy-1-((R)-2-(3-((1S,4S)-5-((1R,3r)-3′-(2-hydroxyphenyl)-5′,7′-dihydrospiro[cyclobutane-1,6′-pyrrolo[2,3-c]pyridazine]-3-carbonyl)-2,5-diazabicyclo[2.2.1]heptan-2-yl)isoxazol-5-yl)-3-methylbutanoyl)-N-((S)-1-(4-(4-methylthiazol-5-yl)phenyl)ethyl)pyrrolidine-2-carboxamide] | A (“A” indicates maximum degradation ≥ 75%) | > 0.1 | < 50 | 
10 | Cc1ncsc1-c1ccc([C@H](C)NC(=O)[C@@H]2C[C@@H](O)CN2C(=O)[C@@H](c2cc(N3C[C@H]4C[C@@H]3CN4C(=O)[C@H]3C[C@@]4(Cc5cc(-c6ccccc6O)nnc5N4)C3)no2)C(C)C)cc1 (racemic) [Compound 79, (2S,4R)-4-hydroxy-1-((R)-2-(3-((1R,4R)-5-((1R,3s)-3′-(2-hydroxyphenyl)-5′,7′-dihydrospiro[cyclobutane-1,6′-pyrrolo[2,3-c]pyridazine]-3-carbonyl)-2,5-diazabicyclo[2.2.1]heptan-2-yl)isoxazol-5-yl)-3-methylbutanoyl)-N-((S)-1-(4-(4-methylthiazol-5-yl)phenyl)ethyl)pyrrolidine-2-carboxamide] | C (“C” indicates maximum degradation < 50%) |  | < 50 | 
11 | Cc1ncsc1-c1ccc([C@H](C)NC(=O)[C@@H]2C[C@@H](O)CN2C(=O)[C@@H](c2cc(N3CCN(C(=O)[C@H]4C[C@@]5(Cc6cc(-c7ccccc7O)nnc6N5)C4)CC3)no2)C(C)C)cc1 (racemic) [Compound 80, (2S,4R)-4-hydroxy-1-((R)-2-(3-(4-((1R,3s)-3′-(2-hydroxyphenyl)-5′,7′-dihydrospiro[cyclobutane-1,6′-pyrrolo[2,3-c]pyridazine]-3-carbonyl)piperazin-1-yl)isoxazol-5-yl)-3-methylbutanoyl)-N-((S)-1-(4-(4-methylthiazol-5-yl)phenyl)ethyl)pyrrolidine-2-carboxamide] | A (“A” indicates maximum degradation ≥ 75%) | > 0.01 | < 50 | 

From patent US20240024488A1, “COMPOUNDS AND USES THEREOF” (Foghorn Therapeutics Inc., priority 2020, published 2024)
